Converted amounts (≈) assume the structure as drawn. Where two headings read alike, the source gives them in different places.
Tests used:
S. aureus ATCC 6538 = experiment: MIC determination, reference strain (microdilution); type: cell-based; conditions: Staphylococcus aureus, ATCC6538; S. aureus ATCC 6538; ± SD; Co-trimoxazole as sulfamethoxazole/trimethoprim; read-out: MIC
HEK-293 cells = experiment: MTT assay, noncancerous cells; type: cell-based; conditions: Homo sapiens, HEK293; HEK-293; MTT, 24 h treatment; read-out: IC50
B. subtilis ATCC 6633 = experiment: MIC determination, reference strain (microdilution); type: cell-based; conditions: Bacillus subtilis, ATCC6633; B. subtilis ATCC 6633; Co-trimoxazole as sulfamethoxazole/trimethoprim; read-out: MIC
C. albicans ATCC 10231 = experiment: MIC determination, reference fungal strain (microdilution); type: cell-based; conditions: Candida albicans, ATCC10231; C. albicans ATCC 10231; read-out: MIC
HeLa cells = experiment: MTT assay; type: cell-based, human; conditions: for IC50: HeLa, MTT, 24 h treatment; for Selectivity index (SI): IC50 HEK-293 / IC50 HeLa
E. hirae ATCC 10541 = experiment: MIC determination, reference strain (microdilution); type: cell-based; conditions: Enterococcus hirae, ATCC10541; E. hirae ATCC 10541; Co-trimoxazole as sulfamethoxazole/trimethoprim; read-out: MIC
DPPH assay = conditions: DPPH radical scavenging; 40 min, room temperature
Procedure: The DPPH assay was performed spectrophotometrically. The amount of 30 µL of different concentrations of samples, dissolved in methanol/DMSO (9/1 v/v), was mixed with 170 µL of 0.06 mM DPPH methanolic solution and completed with methanol to a final volume of 300 µL. DPPH methanolic solution with methanol/DMSO (9/1 v/v) was used as a control. After 40 min of incubation at room temperature in the dark, the absorbance was analyzed at λ = 510 nm by a 96-well microplate reader (Epoch, BioTek System, Santa Clara, CA, USA). Ascorbic acid was used as a standard.
DPPH inhibition was calculated by the following equation:DPPH Inhibition (%) = [Acontrol − Asample)/Acontrol] × 100%
(§1) IC50 values of the samples were calculated using program GraFit v. 7.0 (Erithacus Software). The analysis was performed three times, with tree replications in each (n = 9). Statistical analysis was performed with one-way ANOVA with Tuckey’s post-hoc test.

E. coli ATCC 8739 = experiment: MIC determination, reference strain (microdilution); type: cell-based; conditions: Escherichia coli, ATCC8739; E. coli ATCC 8739; Co-trimoxazole as sulfamethoxazole/trimethoprim; read-out: MIC
[1] = test system: Staphylococcus sp. and Enterococcus sp.; experiment: MIC, summary statements on reference Gram-positive cocci; type: cell-based; conditions: Staphylococcus and Enterococcus species, reference Gram-positive cocci (range over strains)
Procedure: Sterile sheep blood defibrinated (GrasoBiotech). Co-trimoxazole (composition sulfamethoxazole 400 mg/trimethoprim 80 mg; WZF Polfa Poland). Ketoconazole (WZF Polfa Poland). Bacteria: Enterococcus hirae ATCC 10541 and Enterococcus faecalis ATCC 51299, Staphylococcus epidermidis ATCC 14990, Staphylococcus aureus ATCC 6538, clinical strains Staphylococcus aureus MRSA, clinical strains Staphylococcus sp. (MRCNS), clinical strain Staphylococcus epidermidis MRSE, clinical strain Enterococcus sp., Corynebacterium diphtheriae ZMF, Bacillus subtilis ATCC 6633, Escherichia coli ATCC 8739, Candida albicans ATCC 10231. Brain-heart infusion broth (BHI, Becton Dickinson) for Enterococcus hirae ATCC 10541 and Enterococcus faecalis ATCC 51299, BHI supplement with 10% bovine serum for Bacillus subtilis, Corynebacterium diphtheriae ZMF, Staphylococcus epidermidis ATCC 14990, Staphylococcus aureus ATCC 6538, clinical strains Staphylococcus aureus MRSA, clinical strains Staphylococcus sp. (CNS), clinical strain Staphylococcus epidermidis MRSE grew in Mueller-Hinton broth (MH cation-adjusted, Becton Dickinson) in an aerobic atmosphere at 37 °C for 48 h, in an aerobic atmosphere at 37 °C for 72 h. Candida albicans grew in Sabourauda broth (Sb, Becton Dickinson), in an aerobic atmosphere at 37 °C for 72 h. After determination of the bacterial viability, BHI blood agar plates, MH agar plates, and Sb agar plates were used.
The MIC determination for the reference and clinical strains was performed based on the methodology described by Kula et al.. The dry test samples were dissolved in dimethyl sulfoxide (DMSO) and diluted in water, resulting in a finale concentration of about 500 µg/mL. These solutions were diluted and added to the first well of each microtiter line. Dilution in geometric progression was done by transferring the mixture/dilution (100 μL) from the first to the twelfth well. An aliquot (100 μL) was discarded from the twelfth well. The final concentration of the samples used in the antimicrobial activity assay ranged from 125 to 0.006 µg/mL. Co-trimoxazole (for bacteria), with the composition sulfamethoxazole 400 mg/trimethoprim 80 mg was used as a reference compound in the concentration range of 20 000/4000 to 1/0.2 µg/mL. Ketoconazole (for fungi) was used as a reference compound in the concentration range of 125 to 0.006 µg/mL. Tests were incubated in adequate conditions described by Kula et al.. Diluent concentration had no effect on the activity of the tested compounds. All experiments were carried out three times.

E. faecalis ATCC 51299 = experiment: MIC determination, reference strain (microdilution); type: cell-based; conditions: Enterococcus faecalis, ATCC51299; E. faecalis ATCC 51299; Co-trimoxazole as sulfamethoxazole/trimethoprim; read-out: MIC
ABTS assay = conditions: ABTS radical scavenging; 10 min, 30 °C
Procedure: The ABTS assay was performed spectrophotometrically. […] ABTS solution with methanol/DMSO (9/1 v/v) was used as a control. After 10 min of incubation at 30 °C in the dark, the absorbance was analyzed at λ = 750 nm by a 96-well microplate reader (Epoch, BioTek System, Santa Clara, CA, USA). Ascorbic acid was used as a standard.
ABTS inhibition was calculated by the following equation:ABTS Inhibition (%) = [Acontrol − Asample)/Acontrol] × 100%
as §1

in vitro = conditions: sheep, defibrinated sheep blood diluted 1:9 v/v with PBS, pH 7
[2] = test system: S. epidermidis ATCC 14990; experiment: MIC determination, reference strain (microdilution); type: cell-based; conditions: Staphylococcus epidermidis, ATCC14990; S. epidermidis ATCC 14990; Co-trimoxazole as sulfamethoxazole/trimethoprim; read-out: MIC
MCF-7 cells = experiment: MTT assay; type: cell-based, human; conditions: for IC50: Homo sapiens, MCF7, MCF-7, MTT, 24 h treatment, read-out: IC50; for Selectivity index (SI): IC50 HEK-293 / IC50 MCF-7
SKOV-3 cells = experiment: MTT assay; type: cell-based, human; conditions: for IC50: Homo sapiens, SK-OV-3, SKOV-3, MTT, 24 h treatment, read-out: IC50; for Selectivity index (SI): IC50 HEK-293 / IC50 SKOV-3
C. diphtheriae = experiment: MIC determination, reference strain (microdilution); type: cell-based; conditions: Corynebacterium diphtheriae; C. diphtheriae; Co-trimoxazole as sulfamethoxazole/trimethoprim; read-out: MIC
[3] = test system: clinical methicillin-resistant S. aureus (MRSA) strains; experiment: MIC on clinical MRSA strains; type: cell-based; conditions: Staphylococcus aureus, MRSA / VISA; strains MRSA12673, MRSA21804, MRSA18532, MRSA12647 and MRSAN315 VISA
From the text: In the next step, we evaluated the compounds on clinical methicillin-resistant S. aureus (MRSA) strains (Figure 2) and methicillin-resistant coagulase-negative Staphylococcus (MRCNS) (Figure 3). The group of CNS includes nonpathogenic or opportunistic pathogens, while coagulase-positive staphylococci are represented by S. aureus. About 30% of the human population carries S. aureus in the upper respiratory tract. Infections caused by S. aureus include all purulent skin conditions (boils, abscesses, folliculitis) and nosocomial infections. The strains isolated from hospitals are usually antibiotic-resistant, where MRSA strains are the majority. Staphylococcus epidermidis (like other coagulase-negative Staphylococcus) is included in the microflora of human skin and can easily cause surface contamination after surgical procedures.
Sterile sheep blood defibrinated (GrasoBiotech). Co-trimoxazole (composition sulfamethoxazole 400 mg/trimethoprim 80 mg; WZF Polfa Poland). Ketoconazole (WZF Polfa Poland). Bacteria: Enterococcus hirae ATCC 10541 and Enterococcus faecalis ATCC 51299, Staphylococcus epidermidis ATCC 14990, Staphylococcus aureus ATCC 6538, clinical strains Staphylococcus aureus MRSA, clinical strains Staphylococcus sp. […]

[4] = test system: cancer cells (HeLa, SKOV-3, MCF-7); experiment: MTT assay, summary statements on the cancer cells; type: cell-based; conditions: Homo sapiens, cell line not specified
[5] = Homo sapiens, 24 h, read-out: IC50

MIC (S. aureus ATCC 6538)	MIC (B. subtilis ATCC 6633)	MIC (C. albicans ATCC 10231)	IC50 (HeLa cells; [5])	MIC (E. hirae ATCC 10541)	IC50 DPPH (DPPH assay)	MIC (E. coli ATCC 8739)	MIC [1]	MIC (E. faecalis ATCC 51299)	IC50 ABTS (ABTS assay)	MIC [2]	IC50 (MCF-7 cells)	IC50 (SKOV-3 cells)	MIC (C. diphtheriae)	Structure (SMILES)	IC50 (HEK-293 cells)	Selectivity index (SI) (HeLa cells)	Selectivity index (SI) (MCF-7 cells)	Selectivity index (SI) (SKOV-3 cells)	other results
1 ± 0.29 µg/mL (≈ 1.7 µM)	62.5 ± 0.29 µg/mL (≈ 106 µM)	> 125 µg/mL	13.47 ± 0.13 µg/mL (≈ 22.9 µM)	2 ± 0.58 µg/mL (≈ 3.41 µM)	945.37 ± 0.14 µg/mL (≈ 1610 µM)	> 125 µg/mL	1 to 2 µg/mL (≈ 1.7 to 3.41 µM)	2 ± 0.58 µg/mL (≈ 3.41 µM)	697.68 ± 1.26 µg/mL (≈ 1190 µM)	1 ± 0.29 µg/mL (≈ 1.7 µM)	30.7 ± 2.49 µg/mL (≈ 52.3 µM)	16.6 ± 0.69 µg/mL (≈ 28.3 µM)	62.5 ± 0.29 µg/mL (≈ 106 µM)	Cc1cc(S(=O)(=O)NC(=O)/C=C/c2ccc(Br)cc2)c(SCc2cccc3ccccc23)cc1Cl [Compound 16b, (E)–3–(4–Bromophenyl)–N–{[4–chloro–5–methyl–2–(naphthalen–1–yl)methylthio]phenylsulfonyl}acrylamide]	15.7 ± 1.62 µg/mL (≈ 26.7 µM)	1.2	0.5	0.9	hemolysis at 24 h, 31.25 µg/mL (in vitro): 12 to 20%
1 ± 0.29 µg/mL (≈ 1.63 µM)	62.5 ± 0.29 µg/mL (≈ 102 µM)	> 125 µg/mL	< 10 µg/mL	2 ± 0.58 µg/mL (≈ 3.25 µM)	790.52 ± 1.44 µg/mL (≈ 1280 µM)	> 125 µg/mL	1 to 2 µg/mL (≈ 1.63 to 3.25 µM)	2 ± 0.58 µg/mL (≈ 3.25 µM)	569.99 ± 7.9 µg/mL (≈ 926 µM)	1 ± 0.58 µg/mL (≈ 1.63 µM)	13 ± 0.66 µg/mL (≈ 21.1 µM)	13.15 ± 0.05 µg/mL (≈ 21.4 µM)	> 125 µg/mL	Cc1cc(S(=O)(=O)NC(=O)/C=C/c2ccc(Br)cc2)c(SCc2cc3c(cc2Cl)OCO3)cc1Cl [Compound 17a, (E)-3-(4-Bromophenyl)-N-{4-chloro-2-[(6-chlorobenzo[d][1,3]dioxol-5-yl)methylthio]-5-methylphenylsulfonyl}acrylamide]	6.49 ± 0.46 µg/mL (≈ 10.5 µM)	0.8	0.5	0.5	IC50 (HeLa cells): 8.49 ± 0.49 µg/mL (≈ 13.8 µM); MIC [3]: 8 to 16 µg/mL (≈ 13 to 26 µM); IC50 ([4]; MTT): < 10 µg/mL; IC50 ([4]; µg/mL bound converted): ≤ 20 µM
